Laboratory results from ChEMBL document CHEMBL6134907, “Synthesis of 5,9- and 5,8-Diaminoalkoxy Substituted Benzophenanthridinone Analogues as Tyrosyl-DNA Phosphodiesterase 1 Inhibitors and Their Radiosensitizing Activity” (J Med Chem, 2025).
Calls of active or inactive are those of the source. The calls are words filed in the database; no cut-off is given here.

Key:
HCT-116 [1] = assay: Induction of cell cycle arrest in human HCT-116 cells assessed as accumulation of cells at G0/G1 phase at 5 uM measured after 24 hrs by Propidium iodide (PI) staining based assay (reference value: 69.35%); assay type: functional
[2] = Cmax in male Sprague-Dawley rat at 1 mg/kg, iv measured up to 24 hrs by LCMS-MS analysis; assay type: ADME, organism-based; conditions: in vivo
[3] = Tmax in male Sprague-Dawley rat at 1 mg/kg, iv measured up to 24 hrs by LCMS-MS analysis; assay type: ADME, organism-based; conditions: in vivo
HCT-116 [4] = assay: Synergistic cytotoxicity against human SgTDP1-HCT-116 cells (TDP1 knockout) assessed as combination index at 0.5 uM incubated for 48 hrs in presence of 2GY ionizing radiation; assay type: functional
HeLa = assay: Radiosensitizing activity in human HeLa cells assessed as sensitization of 2 GY ionizing radiation induced decrease in cell survival by colony formation assay; assay type: functional, cell-based
HCT-116 [5] = assay: Suppression of ionizing radiation (IR) induced DNA damage in human wild type HCT-116 cells assessed as HR repair activity by measuring GFP positive cells at 1 uM measured after 24 hrs by flow cytometry; assay type: functional, cell-based
HCT-116 [6] = assay: Induction of ROS generation in human HCT-116 cells assessed as fold increase in intracellular ROS level at 5 uM under 4GY ionizing radiation (IR) measured after 20 mins by ELIASA analysis; assay type: functional
HCT-116 [7] = assay: Induction of cell cycle arrest in human HCT-116 cells assessed as accumulation of cells at G0/G1 phase at 10 uM measured after 24 hrs by Propidium iodide (PI) staining based assay (reference value: 69.35%); assay type: functional
HCT-116 [8] = assay: Induction of apoptosis in human HCT-116 cells assessed as induction of 4GY ionizing radiation (IR) induced cleaved Caspase-9 at 5 uM measured after 24 hrs by Western blot analysis; assay type: functional, cell-based
HCT-116 [9] = assay: Synergistic cytotoxicity against human SgTDP1-HCT-116 cells (TDP1 knockout) assessed as combination index at 1 uM incubated for 48 hrs in presence of 2GY ionizing radiation; assay type: functional
HCT-116 [10] = assay: Induction of apoptosis in human HCT-116 cells assessed as viable cells at 5 uM measured after 24 hrs by FITC Annexin V/PI apoptosis detection assay (reference value: 99.71%); assay type: functional; conditions: read-out: Activity
[11] = AUClast in male Sprague-Dawley rat at 1 mg/kg, iv measured up to 24 hrs by LCMS-MS analysis; assay type: ADME, organism-based; conditions: in vivo
HCT-116 [12] = assay: Induction of apoptosis in human HCT-116 cells assessed as induction of 4GY ionizing radiation (IR) induced cleaved Caspase-7 at 5 uM measured after 24 hrs by Western blot analysis; assay type: functional, cell-based
HCT-116 [13] = assay: Reduction in recruitment of XRCC4 at damage site of human HCT-116 cells at 5 uM radiated with 4 GY ionizing radiation (IR) measured after 3 hrs by fluorescence colocalization assay; assay type: functional, cell-based
[14] = Toxicity in BALB/c mouse xenografted with human HCT-116 cells assessed as change in heart weight at 1 to 10 mg/kg, ip every day for 14 days radiated for every 2 days once; assay type: organism-based; conditions: in vivo, 336 h, dose 1-10 mg/kg, time 14 day
[15] = Induction of 4GY ionizing radiation (IR) induced cell cycle arrest in human HCT-116 cells assessed as accumulation of cells at G0/G1 phase at 5 uM measured after 24 hrs by Propidium iodide (PI) staining based assay (reference value: 65.99%); assay type: functional
RKO = assay: Synergistic cytotoxicity against human RKO cells assessed as combination index at 5 uM incubated for 48 hrs in presence of 2GY ionizing radiation (IR); assay type: functional
HCT-116 [16] = assay: Induction of 4GY ionizing radiation (IR) induced ROS production in human HCT-116 cells assessed as mitochondrial dysfunction by measuring mitochondrial membrane potential loss at 10 uM measured after 24 hrs by flow cytometry; assay type: functional, cell-based
HCT-116 [17] = assay: In vivo radiosensitizing activity in human HCT-116 cells xenografted in BALB/c mouse assessed as sensitization of 1 GY ionizing radiation induced tumor growth inhibition at 1 mg/kg, ip every day for 14 days radiated for every 2 days once; assay type: functional, organism-based; conditions: time 14.0 day
HCT-116 [18] = assay: Induction of 4GY ionizing radiation (IR) induced apoptosis in human HCT-116 cells measured after 24 hrs by TUNEL staining based analysis; assay type: functional, cell-based; conditions: dose 5-10 µM
HCT-116 [19] = assay: Effect on Ku70/80 expression in wild type human HCT-116 cells assessed as change in protein level at 5 to 10 uM radiated with 4 GY ionizing radiation (IR) measured after 24 hrs by Western blot analysis; assay type: functional, cell-based; conditions: dose 5-10 µM
HCT-116 [20] = assay: Induction of cell cycle arrest in human HCT-116 cells assessed as accumulation of cells at S phase at 10 uM measured after 24 hrs by Propidium iodide (PI) staining based assay (reference value: 13.96%); assay type: functional
HGC-27 = assay: Radiosensitizing activity in human HGC-27 cells assessed as sensitization of 2 GY ionizing radiation induced decrease in cell survival by colony formation assay; assay type: functional, cell-based
A549 = assay: Radiosensitizing activity in human A549 cells assessed as sensitization of 2 GY ionizing radiation induced decrease in cell survival by colony formation assay; assay type: functional, cell-based
[21] = Oral bioavailability in male Sprague-Dawley rat at 5 mg/kg measured up to 24 hrs by LCMS-MS analysis; assay type: ADME, organism-based; conditions: in vivo
HCT-116 [22] = assay: Cytotoxicity against human HCT116 cells assessed as cell killing at 0.5 uM relative to control; assay type: functional
[23] = Tmax in male Sprague-Dawley rat at 5 mg/kg, IG measured up to 24 hrs by LCMS-MS analysis; assay type: ADME, organism-based; conditions: in vivo, po
[24] = target: T1, Tyrosyl-DNA phosphodiesterase 1 (Homo sapiens, UniProt Q9NUW8); assay: Binding affinity to TDP1 in human HCT-116 cells assessed as increase in thermal stability by Cellular Thermal Shift Assay (CETSA); assay type: cell-based
T1 sequence (Q9NUW8 whole entry): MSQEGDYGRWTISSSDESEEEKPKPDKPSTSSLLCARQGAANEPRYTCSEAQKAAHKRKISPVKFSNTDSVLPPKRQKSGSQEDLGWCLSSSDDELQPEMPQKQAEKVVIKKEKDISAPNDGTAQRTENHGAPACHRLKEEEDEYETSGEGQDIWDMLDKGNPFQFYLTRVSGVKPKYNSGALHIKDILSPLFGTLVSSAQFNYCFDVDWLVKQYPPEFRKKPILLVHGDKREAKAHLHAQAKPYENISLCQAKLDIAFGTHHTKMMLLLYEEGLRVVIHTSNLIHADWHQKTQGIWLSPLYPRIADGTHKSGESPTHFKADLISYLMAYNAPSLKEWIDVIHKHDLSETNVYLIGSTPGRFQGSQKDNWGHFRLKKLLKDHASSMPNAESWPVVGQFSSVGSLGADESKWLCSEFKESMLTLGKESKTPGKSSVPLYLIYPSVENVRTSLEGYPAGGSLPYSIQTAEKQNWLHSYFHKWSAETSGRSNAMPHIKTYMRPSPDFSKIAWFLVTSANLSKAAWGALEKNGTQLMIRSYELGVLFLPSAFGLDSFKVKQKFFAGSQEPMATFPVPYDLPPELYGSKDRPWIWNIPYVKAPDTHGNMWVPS

[25] = target: T1, Tyrosyl-DNA phosphodiesterase 1; assay: Inhibition of recombinant TDP1 (unknown origin) assessed as substrate cleavage using 5'-Cy5-GATCTAAAAGACTT-pY-3' DNA substrate measured after 15 mins by gel-based assay
[26] = Toxicity in BALB/c mouse xenografted with human HCT-116 cells assessed as change in liver weight at 1 to 10 mg/kg, ip every day for 14 days; assay type: organism-based; conditions: in vivo, 336 h, dose 1-10 mg/kg, time 14 day
[27] = target: T1, Tyrosyl-DNA phosphodiesterase 1; assay: Inhibition of TDP1 in human SgTDP1-HCT-116 cells (TDP1 knockout) at 1.11 mM; assay type: cell-based
HCT-116 [28] = assay: Effect on Ku70/80 expression in wild type human HCT-116 cells assessed as change in mRNA level at 5 to 10 uM radiated with 4 GY ionizing radiation (IR) measured after 24 hrs by qRT-PCR analysis; assay type: functional, cell-based; conditions: dose 5-10 µM
[29] = Induction of 4GY ionizing radiation (IR) induced cell cycle arrest in human HCT-116 cells assessed as accumulation of cells at G2/M phase at 5 uM measured after 24 hrs by Propidium iodide (PI) staining based assay (reference value: 20.51%); assay type: functional
HCT-116 [30] = assay: Induction of 4GY ionizing radiation (IR) induced apoptosis in human HCT-116 cells assessed as late apoptotic cells at 10 uM measured after 24 hrs by FITC Annexin V/PI apoptosis detection assay (reference value: 14.32%); assay type: functional

Work on COc1cc2c(=O)n(CCN(C)C)c3c4cc5c(cc4ccc3c2cc1OCCN1CCOCC1)OCO5 yielded an Activity (HCT-116 [1]) of 69.89%, a Cmax [2] of 221 ng/mL and a Tmax [3] of 4.98 min. The CI (HCT-116 [4]) was 0.94, the Activity (HeLa) was “inactive” and the Activity (HCT-116 [5]) was “inactive”. The “fold change (FC)” value (HCT-116 [6]) was 1.7, the Activity (HCT-116 [7]) was 63.63% and the Activity (HCT-116 [8]) was “Active”. It also gave a CI (HCT-116 [9]) of 0.46, a viability at 5 µM (HCT-116 [10]) of 78.2% and an AUC(0-t) at 24 h [11] of 247 ng·h/mL. The Activity (HCT-116 [12]) was “Active”, the Activity (HCT-116 [13]) was “Active” and the Activity [14] was “Non-toxic”. For the same molecule, the Activity [15] was 44.18%, the CI (RKO) was less than 0.3 and the Activity (HCT-116 [16]) was “Active”. The TGI (HCT-116 [17]) was “Active”, the Activity (HCT-116 [18]) was “Dose-dependent-effect” and the Activity (HCT-116 [19]) was “inactive”. For the same molecule, the Activity (HCT-116 [20]) was 10.2%, the Activity (HGC-27) was “inactive” and the Activity (A549) was “inactive”. The bioavailability [21] was 63.1%, the Activity (HCT-116 [22]) was 11% and the Tmax [23] was 4 h. For the same molecule, the Activity [24] was “Active; Thermal Melting Curve Of Tdp1 Protein Shifted Left”, the IC50 [25] was 7.8 µM and the Activity [26] was “Non-toxic”. The inhibition [27] was “inactive”, the Activity (HCT-116 [28]) was “inactive” and the Activity [29] was 43.13%. For the same molecule, the Activity (HCT-116 [30]) was 23.04%.
